Patent publication US5470950A, “Biologically active amphiphilic peptide compositions and uses therefor” (Magainin Pharmaceuticals Inc., priority 1994, dated 1995)
Ends that are not written are not given here.

Columns and labels:
Test in all cases: Antibacterial MIC assay (NCCLS M7-T2 microtiter broth dilution)
Format in all cases: cell-based
[1] = system: P. aeruginosa strain ATCC 27853; details: P. aeruginosa ATCC 27853; Mueller Hinton broth, 16-20 hours at 37° C.; lowest concentration giving a clear well
Excerpt: (§1) Table I, which follows, indicates the Minimal Inhibitory Concentration (MIC) in μg/ml of Peptides (SEQ ID NO:1) through (SEQ ID NO:3), (SEQ ID NO:5), (SEQ ID NO:6), (SEQ ID NO:9) through (SEQ ID NO:11), and (SEQ ID NO:17) against S.aureus strain ATCC 25923, P. aeruginosa strain ATCC 27853, and E.coli ATCC strain 25922. The procedure for the antibacterial assay is based upon the guidelines of the National Committee for Clinical Laboratory Standards, Document M7-T2, Volume 8, No. 8, 1988. Stock solutions of peptides (SEQ ID NO: 1) through (SEQ ID NO:3), (SEQ ID NO:5), (SEQ ID NO:S), (SEQ ID NO:9) through (SEQ ID NO:12), and […] in accordance with the present invention are prepared at a concentration of 512 μg/ml in sterile deionized distilled water and stored at -70° C. Each peptide is a C-terminal amide and may or may not be acetylated at the N-Terminus. An acetyl group at the N-terminus is indicated by an X. The stock peptide solution is diluted in serial dilutions (1:2) down the wells of a microtiter plate so that the final concentrations of peptides in the wells are 0.25, 0.50, i, 2,4, 8, 16, 32, 64, 128, and 256 μg/ml. 1-5×10^5 CFUs/ml of either S. aureus ATCC 25923, E. coli ATCC 25922, or P. aeruginosa ATCC 27853 were added to the wells in full strength Mueller Hinton broth (BBL 11443) from a mid-log culture. The inoculum is standardized spectrophotometrically at 600 nm and is verified by colony counts. The plates are incubated for 16-20 hours at 37° C., and the minimal inhibitory concentration (MIC) for each peptide is determined. Minimal inhibitory concentration is defined as the lowest concentration of peptide which produces a clear well in the microtiter plate. The minimal inhibitory concentration of each of (SEQ ID NO:1) through (SEQ ID NO:3), (SEQ ID NO:5), (SEQ ID NO:6), (SEQ ID NO:9) through (SEQ ID NO:11), and (SEQ ID NO:17) is given in Table I below.

[2] = system: S. aureus strain ATCC 25923; details: S. aureus ATCC 25923; Mueller Hinton broth, 16-20 hours at 37° C.; lowest concentration giving a clear well
Excerpt: as §1

[3] = system: E.coli ATCC strain 25922; details: E. coli ATCC 25922; Mueller Hinton broth, 16-20 hours at 37° C.; lowest concentration giving a clear well
Excerpt: as §1

Row | Substance | Minimal Inhibitory Concentration P. aeruginosa [1] | Minimal Inhibitory Concentration S. aureus [2] | Minimal Inhibitory Concentration E. coli [3]
1 | Ac-KKLLKKLKKLLKKLRR-NH2 [X-(SEQ ID NO: 5)-NH2] | 8 µg/mL | 4 µg/mL | 32 µg/mL
2 | Ac-KLLKKLKKLLKLL-NH2 [X-(SEQ ID NO: 3)-NH2] | 16 µg/mL | 64 µg/mL | 8,16 μg/ml
3 | Ac-LKKLKKLLKLL-NH2 [X-(SEQ ID NO: 1)-NH2] | 4,8 μg/ml | 16 µg/mL | 4 µg/mL
4 | Ac-LKKLLKKLKKL-NH2 [X-(SEQ ID NO: 17)-NH2] | 8,16 μg/ml | 256 µg/mL | 32,64 μg/ml
5 | Ac-LKLLKKLLKKNKKLLKKL-NH2 [X-(SEQ ID NO: 9)-NH2] | 8 µg/mL | 16 µg/mL | 64 µg/mL
6 | Ac-LKLLKKLLKKPKKLLKKL-NH2 [X-(SEQ ID NO: 10)-NH2] | 16 µg/mL | 16,32 μg/ml | 64 µg/mL
7 | Ac-LLKKLKKLLKLL-NH2 [X-(SEQ ID NO: 2)-NH2] | 16 µg/mL | 16 µg/mL | 8,16 μg/ml
8 | KLLKKLKKLLKLL-NH2 [(SEQ ID NO.:3)-NH2] | 16 µg/mL | 64 µg/mL | 
9 | LKKLKKLLKLL-NH2 [(SEQ ID NO.: 1)-NH2] | 8,16 μg/ml | 64,128 μg/ml | 8,16 μg/ml
10 | LKKLLKKLKKL-NH2 [(SEQ ID NO: 17)-NH2] | 32,64 μg/ml | > 256 µg/mL | 64,128 μg/ml
11 | LLKKLKKLLKLL-NH2 [(SEQ ID NO.:2)-NH2] | 16 µg/mL | 16 µg/mL | 8,16 μg/ml
